Data from patent publication US10947188B2, “Small molecule ferroptosis inducers” (THE TRUSTEES OF COLUMBIA UNIVERSITY IN THE CITY OF NEW YORK, priority 2016, dated 2021).
pEC50: −log10 of the molar value.

Tested on: HT-1080
Assay: Modulatory profiling: Alamar Blue viability, lethal compound cotreated with death modulator (EC50, AUC)
Type: cell-based
Parameters: AUC, modulator HT.3MA / AUC, modulator HT.ALLN / AUC HT.ATA / AUC HT.ActD / AUC HT.BHA / AUC HT.BHT / AUC HT.BocD / AUC HT.CHX / AUC HT.Co2+ / AUC HT.DPQ / AUC HT.EGTA / AUC HT.Lmim / AUC HT.NAD+ / AUC HT.Nec-1 / AUC HT.SP600125 / AUC HT.TLCK / AUC HT.U0126: unit not given beside the values
Details: for AUC HT.ATA: HT-1080, modulator ATA; for AUC HT.ActD: HT-1080, modulator ActD; for AUC HT.BHA: HT-1080, modulator BHA; for AUC HT.BHT: HT-1080, modulator BHT; for AUC HT.BocD: HT-1080, modulator BocD; for AUC HT.CHX: HT-1080, modulator CHX; for AUC HT.Co2+: HT-1080, modulator Co2+; for AUC HT.CspA: HT-1080, modulator CspA; for AUC HT.DPQ: HT-1080, modulator DPQ; for AUC HT.EGTA: HT-1080, modulator EGTA; for AUC HT.Gd3+: HT-1080, modulator Gd3+; for AUC HT.LNAME: HT-1080, modulator LNAME; for AUC HT.Lmim: HT-1080, modulator Lmim; for AUC HT.NAD+: HT-1080, modulator NAD+; for AUC HT.NMMA: HT-1080, modulator NMMA; for HT.atoc (AUC) / HT.bCarotene (AUC) / HT.deferox (AUC) / HT.digoxin (AUC) / HT.trolox (AUC) / HT.zVAD (AUC) / pEC50: HT-1080; for HT.atoc (AUC): modulator atoc; for HT.bCarotene (AUC): modulator bCarotene; for HT.deferox (AUC): modulator deferox; for HT.digoxin (AUC): modulator digoxin; for HT.trolox (AUC): modulator trolox; for HT.zVAD (AUC): modulator zVAD; for effect of ferroptosis inhibitors (iron chelators and lipophilic antioxidants) on lethality in modulatory profiling: HT-1080 and BJeLR; for pEC50: Homo sapiens, HT-1080, 48 h, 48 h; for AUC, modulator HT.3MA / AUC, modulator HT.ALLN: HT-1080 cells, modulatory profile value (AUC); for AUC, modulator HT.3MA: lethal compound cotreated with modulator 3MA; for AUC, modulator HT.ALLN: lethal compound cotreated with modulator ALLN; for AUC HT.Nec-1: HT-1080, modulator Nec-1; for AUC HT.Pepstatin: HT-1080, modulator Pepstatin; for AUC HT.SP600125: HT-1080, modulator SP600125; for AUC HT.TLCK: HT-1080, modulator TLCK; for AUC HT.U0126: HT-1080, modulator U0126
[1] = cotreated with antioxidant Atoc
[2] = cotreated with antioxidant Trolox
[3] = cotreated with iron-chelator Deferoxamine
[4] = cotreated with iron-chelator Lmim

Row | SMILES | AUC HT.ATA | AUC HT.ActD | AUC HT.BHA | AUC HT.BHT | AUC HT.BocD | AUC HT.CHX | AUC HT.Co2+ | AUC HT.CspA | AUC HT.DPQ | AUC HT.EGTA | AUC HT.Gd3+ | AUC HT.LNAME | AUC HT.Lmim | AUC HT.NAD+ | AUC HT.NMMA | HT.atoc (AUC) | HT.bCarotene (AUC) | HT.deferox (AUC) | HT.digoxin (AUC) | HT.trolox (AUC) | also measured
1 | COC(=O)[C@@H]1Cc2c([nH]c3ccccc23)C(C)(C)N1C(=O)CCl [CIL79] | −0.05302 | −0.04021 | 0.3909 | 0.3644 | −0.002385 | 0.02794 | 0.2948 | −0.03389 | 0.04764 | 0.02262 | −0.02579 | 0.01224 | 0.4052 | −0.004292 | 0.003194 | 0.4488 | 0.005675 | 0.5494 | −0.0705 | 0.4225 | HT.zVAD (AUC): 0.003682; effect of ferroptosis inhibitors (iron chelators and lipophilic antioxidants) on lethality in modulatory profiling: suppression by canonical ferroptosis inhibitors; pEC50 (DMSO): 6.57; pEC50 (cotreated with MEK inh U0126): 4.84; pEC50 [1]: 4.93; pEC50 (cotreated with antioxidant BHA): 5.00; pEC50 (cotreated with antioxidant BHT): 5.20; pEC50 [2]: 4.99; pEC50 [3]: 4.49; pEC50 [4]: 4.92
2 | CCCCNc1c(Cl)cnn(-c2ccccc2)c1=O [CIL36] | 0.05274 | −0.04409 | 0.0054 | −0.1272 | 0.002169 | −0.06645 | 0.02821 | 0.01593 | 0.05193 | −0.01311 | −0.04267 | −0.02799 | 0.004214 | −0.06378 | −0.009501 | 0.08942 | −0.005276 | 0.06452 | −0.03557 | 0.002425 | HT.zVAD (AUC): −0.003588; AUC, modulator HT.3MA: 0.08327; AUC, modulator HT.ALLN: 0.1422
3 | OCCNCC(O)Cn1c2ccc(Br)cc2c2cc(Br)ccc21 (stereo not shown) [CIL7] | −0.01671 | −0.01197 | −0.06352 | −0.103 | 0.07799 | 0.0511 | 0.1062 | −0.06441 | 0.005254 | 0.006456 | −0.02982 | 0.01998 | −0.002674 | 0.07707 | −0.02442 | 0.02896 | −0.0174 | −0.05071 | 0.003869 | −0.006321 | AUC HT.Nec-1: 0.007138; AUC HT.Pepstatin: −0.00124; AUC HT.SP600125: −0.04155; AUC HT.TLCK: −0.01113; AUC HT.U0126: 0.01556; HT.zVAD (AUC): −0.03773; AUC, modulator HT.3MA: −0.004626; AUC, modulator HT.ALLN: 0.1136
4 | Cc1cccnc1Nc1nc(-c2ccccn2)cs1 [CIL13] | 0.04672 | −0.04327 | −0.06288 | −0.104 | 0.09941 | 0.03999 | 0.2924 | 0.06243 | −0.01515 | 0.08353 | −0.03072 | −0.07962 | −0.06102 | −0.04462 | −0.04118 | 0.1029 | 0.01006 | 0.05411 | 0.03512 | −0.03975 | HT.zVAD (AUC): 0.01164; AUC, modulator HT.3MA: 0.02535; AUC, modulator HT.ALLN: 0.01646; effect of cobalt (II) on lethality (modulatory profiles, CoCl2 supplementation): inhibited by cobalt (II)
5 | CCc1ccc(/C=C2/SC(=O)N(CCC(C)NCCCN3CCOCC3)C2=O)cc1 (stereo not shown) [CIL46] | 0.0162 | −0.02916 | −0.1015 | −0.1471 | −0.04371 | −0.01909 | −0.1082 | 0.0003356 | −0.001692 | −0.01699 | −0.008617 | −0.02805 | −0.03166 | −0.06754 | 0.001557 | 0.04736 | −0.01026 | 0.03467 | −0.04671 | −0.0145 | HT.zVAD (AUC): 0.01724; AUC, modulator HT.3MA: 0.08624; AUC, modulator HT.ALLN: 0.03767
6 | CC1=CC(C)(C)Nc2ccc(OC(=O)c3cccnc3)cc21 [CIL47] | 0.07043 | 0.01588 | −0.04478 | −0.1469 | −0.009617 | 0.007874 | −0.2381 | 0.01761 | −0.02038 | 0.001051 | −0.02263 | −0.01288 | −0.04173 | −0.02784 | −0.01195 | 0.04666 | −0.001832 | 0.01074 | 0.03489 | −0.03828 | HT.zVAD (AUC): −0.005894; AUC, modulator HT.3MA: 0.07294; AUC, modulator HT.ALLN: 0.2227
7 | O=C(CCl)N(c1ccccc1)c1c[nH]c2ccccc12 [CIL69] | −0.005358 | −0.004265 | 0.2489 | 0.2227 | −0.03457 | 0.03395 | 0.07132 | 0.009848 | −0.006588 | 0.06032 | −0.01446 | −0.04538 | 0.1792 | 0.03637 | −0.04048 | 0.3456 | −0.0167 | 0.3005 | −0.0261 | 0.2631 | HT.zVAD (AUC): −0.0004734; effect of ferroptosis inhibitors (iron chelators and lipophilic antioxidants) on lethality in modulatory profiling: suppression by canonical ferroptosis inhibitors; pEC50 (DMSO): 6.26; pEC50 (cotreated with MEK inh U0126): 5.24; pEC50 [1]: 5.21; pEC50 (cotreated with antioxidant BHA): 5.32; pEC50 (cotreated with antioxidant BHT): 5.48; pEC50 [2]: 5.37; pEC50 [3]: 5.03; pEC50 [4]: 5.32
8 | CC(C)C[C@H](NC(=O)[C@H](Cc1ccccc1)NC(=O)c1cnccn1)B(O)O [Bortezomib] | 0.0541 | −0.07229 | −0.04985 | −0.131 | 0.02874 | 0.02631 | 0.06445 | −0.2224 | 0.01079 | −0.006629 | −0.02823 | 0.009924 | 0.01347 | 0.139 | 0.01354 | 0.007023 | −0.01914 | −0.01672 | 0.07916 | −0.004183 | AUC HT.Nec-1: −0.06186; AUC HT.Pepstatin: −8.033E−05; AUC HT.SP600125: −0.03028; AUC HT.TLCK: 0.07195; AUC HT.U0126: −0.03187; HT.zVAD (AUC): 0.01074; AUC, modulator HT.3MA: −0.07171; AUC, modulator HT.ALLN: −0.08587
9 | COC(=O)c1ccc([C@@H]2c3[nH]c4ccccc4c3C[C@@H](C(=O)OC)N2C(=O)CCl)cc1 [RSL3, reference compound] | −0.04539 | −0.08579 | 0.3798 | 0.2444 | −0.01184 | −0.05099 | −0.1948 | −0.1268 | 0.1653 | 0.03696 | −0.01265 | −0.01081 | 0.3302 | 0.007883 | −0.00551 | 0.4471 | −0.01346 | 0.3508 | −0.1463 | 0.4213 | AUC HT.Nec-1: 0.07095; AUC HT.Pepstatin: −0.01327; AUC HT.SP600125: −0.1319; AUC HT.TLCK: 0.3152; AUC HT.U0126: 0.3972; HT.zVAD (AUC): −0.01599; AUC, modulator HT.3MA: −0.07471; AUC, modulator HT.ALLN: −0.03802
10 | O=P(Oc1ccccc1)(Oc1ccccc1)O[C@@H]1C=CS(=O)(=O)C1 [CIL44] | 0.0592 | 0.01649 | −0.02559 | −0.1007 | −0.0552 | 0.02874 | −0.04658 | −0.01586 | −0.01669 | −0.007267 | −0.01147 | −0.02505 | −0.007614 | −0.07144 | −0.0419 | 0.04386 | −0.02012 | 0.1041 | 0.01992 | −0.02106 | HT.zVAD (AUC): 0.01751; AUC, modulator HT.3MA: 0.07356; AUC, modulator HT.ALLN: 0.1392
11 | N/C(=N\OC(=O)C12CC3CC(CC(C3)C1)C2)c1ccccc1 [CIL41] | 0.02643 | −0.09343 | 0.1312 | 0.009338 | −0.01678 | −0.05459 | 0.06389 | 9.4409E−05 | 0.04282 | 0.02946 | −0.02592 | −0.0121 | 0.1377 | −0.008657 | −0.01029 | 0.316 | −0.02182 | 0.1795 | −0.09255 | 0.161 | HT.zVAD (AUC): −0.0167; effect of ferroptosis inhibitors (iron chelators and lipophilic antioxidants) on lethality in modulatory profiling: suppression by canonical ferroptosis inhibitors; AUC, modulator HT.3MA: 0.04521; AUC, modulator HT.ALLN: 0.09324; pEC50 (DMSO): 5.25; pEC50 (cotreated with MEK inh U0126): 4.68; pEC50 [1]: 4.30; pEC50 (cotreated with antioxidant BHA): 4.59; pEC50 (cotreated with antioxidant BHT): 4.90; pEC50 [2]: 4.63; pEC50 [3]: 3.91; pEC50 [4]: 4.16
